Measured values taken from patent US9492450B2, “Inhibition of dynamin related protein 1 to promote cell death” (University of Pittsburgh—of the Commonwealth System of …, priority 2011, dated 2016).

Tests used:
[1] = Synergy with cisplatin, experiments not described
[2] = system: MDA-MB-231 cells; experiment: Caspase-3/7 activity assay (apoptosis); type: cell-based, human; details: 20 h
Protocol: FIG. 18. […] Multidrug-resistant MDA-MB-231 breast carcinoma cells were treated with increasing doses of mdivi-1 alone, a series of anticancer drugs alone, or the combination of increasing doses of anticancer drugs with 20 μM mdivi-1 for 20 h. Apoptosis was determined by measuring the activity of caspase-3/7. The drugs tested were platinum agent, cisplatin; antifolate agent, methotrexate; topoisomerase II inhibitor, etoposide; cytidine analog, gemcitabine; pyrimidine analog, 5-FU; alkylating agents, cyclophosphamide, MMS and MNNG; DNA crosslinking agent, MMC; DNA intercalating agent, doxorubicin; and antimitotic drug, paclitaxel.
FIG. 21A-F. Mdivi-1 enhances cisplatin sensitivity through Drp1-independent mechanisms. (A) Confirmation of the depletion of Drp1 in Drp1 knockout SV40-transformed MEF cells by western blot. (B) Drp1 wild-type (Drp1+/+) and knockout (Drp1−/−) MEF cells were treated as indicated for 20 h, and the number of apoptotic cells was determined by antibody recognizing cleaved caspase-3. […] (C) Drp1 wild-type and knockout MEF cells were treated with mdivi-1 for 24 h, and the cell number were determined by CyQuant assay. (D) OCR was measured after 1 h treatment of Drp1 wild-type and knockout MEF cells with DMSO or mdivi-1. (E) The combination effect of cisplatin with four analogs of mdivi-1. […]

[3] = system: Drp1; details: as said in Cassidy-Stone et al., Dev Cell 14:193-204; cited from earlier work
[4] = system: MDA-MB-231 cells; experiment: DNA content flow cytometry (propidium iodide): G2/M arrest and aneuploidy; type: cell-based, human; details: 5 μg/ml oligomycin, 5 μM FCCP or 10 μg/ml antimycin A, 24 h

## O=C(N/N=C/c1ccc(O)c(O)c1)c1cc2ccccc2cc1O [Dynasore]
[1]
  synergistic effect with cisplatin: have not demonstrated a synergistic effect

## COc1cc(-n2c(SC)nc3ccccc3c2=O)c(Cl)cc1Cl [compound F]
[2]; 20 μM of agents alone or in combination with cisplatin
  combination effect with cisplatin in enhancing apoptosis: abolished the synergism with cisplatin
[3]
  efficacy in inhibiting Drp1 relative to mdivi-1: poor efficacy

## N#CC(C#N)=NNc1ccc(OC(F)(F)F)cc1 [FCCP]
[4]
  G2/M cell cycle arrest and aneuploidy: did not induce G2/M cell cycle arrest and aneuploidy

## CC[C@H]1/C=C/C=C/C[C@@H](C)[C@H](O)[C@@](C)(O)C(=O)[C@@H](C)[C@H](O)[C@@H](C)C(=O)[C@@H](C)[C@H](O)[C@@H](C)/C=C/C(=O)O[C@@H]2[C@H](C)[C@H](CC1)O[C@]1(CC[C@H](C)[C@H](C[C@@H](C)O)O1)[C@H]2C [oligomycin]
[4]
  G2/M cell cycle arrest and aneuploidy: did not induce G2/M cell cycle arrest and aneuploidy

## antimycin A
[4]
  G2/M cell cycle arrest and aneuploidy: did not induce G2/M cell cycle arrest and aneuploidy

## C[C@]1(c2nc3c(C(N)=O)cccc3[nH]2)CCCN1 [ABT-888]
[2]; series doses
  apoptosis, alone and in combination with cisplatin: resistant
